Experimental data: patent US10400242B2, “Methods for treating acute myeloid leukemia and nanoparticle complexes of miR-22 utilized therein” (University of Cincinnati, priority 2016, dated 2019)

B1: G7-FLT3L dendrimers: FLT3L-conjugated Generation 7 (G7) PAMAM dendrimers, Cy5.5-labelled, targeting FLT3 on AML cells (conjugate)
chain: TQDCSFQHSPISSDFAVKIRELSDYLLQDYPVTVASNLQDEELCGGLWRLVLAQRWMERLKTVAGSKMQGLLERVNTEIHFVTKCAFQPPPSCLRFVQTNISRLLQETSEQLVALKPWITRQNFSRCLELQCQPDSSTLPPPWSPRPLEATAPTA

Key:
[1] = system: miR-22 promoter; assay: Bisulfite sequencing of miR-22 promoter in ATRA-treated THP-1 cells; assay type: cell-based, human; details: 1 μM ATRA or DMSO, 72 hrs
[2] = system: THP-1 cells; assay: ATRA-treatment study, gene expression (qPCR) in THP-1 cells; assay type: cell-based, human; details: 1 μM ATRA, 72 hours, vs DMSO
Experimental: Total RNA was extracted with the miRNeasy extraction kit (Qiagen, Valencia, Calif.) and was used as template to synthesize cDNA for quantitative RT-PCR (qPCR) analysis in a 7900HT real-time PCR system (Applied Biosystems, Foster City, Calif.). TaqMan qPCR assay was performed to validate the differential expression patterns of miR-22 using commercial kits from Applied Biosystems (Cat. #4427975). Sequences for the controls are: sno202: 5′-[…]-3′ (SEQ ID NO: 1); RNU6B: 5′-[…]-3′ (SEQ ID NO: 4). qPCR with SYBR Green dye (Qiagen) was used to determine expression of mRNA genes. snoRNA202, RNU48, Gapdh or GAPDH were used as endogenous controls for qPCR of miRNA and mRNA, respectively. Each sample was run in triplicate. qPCR primers are available upon request. For determining the miR-22 DNA locus copy number, TaqMan qPCR assay was used as described previously^57.
(§1) For the ATRA-treatment study, THP-1 cells were seeded at a concentration of 0.4×10^6/mL and treated with ATRA (1 μmol/L) or vehicle control (DMSO, 0.001%) for 72 hours before cells were collected for RNA analysis or CUP assays.

[3] = system: miR-22 promoter region; assay: ChIP-qPCR of miR-22 promoter region in ATRA-treated THP-1 cells; assay type: cell-based, human; details: 1 μM ATRA, 72 hours
Experimental: as §1
ChIP assay was performed, as described previously^14, 17, with SABiosciences Corporation's ChampionChiP™ One-Day kit (Qiagen, Frederick, Md.) following the manufacturer's protocol, with some modifications. Briefly, pellets of 5×10^6 cells were treated with fresh fixing buffer (1% formaldehyde) for 10 min at 37° C. to crosslink DNA and proteins. The reaction was terminated by the addition of stop buffer and incubated at room temperature for 5 min. After cell lysis, the cross-linked chromatin was sonicated to an average size of ˜500 bp and was immunoprecipitated with antibodies against TET1, GFI1 (Santa Cruz Biotechnology Inc., Santa Cruz, Calif.), the N′-terminal portion of MLL (MLL-N), the C′-terminal of MLL (MLL-C), H3K27Me3, H3K4Me3, RNA polymerase II, EZH2, SIN3A or IgG (Abcam, Cambridge, Mass.). Purified ChIP DNA was amplified by real-time qPCR using specific primers targeting the CpG-enriched upstream region of human miR-22: Forward: 5′-GTT GTT GGA GTC GTG AGT G-3′ (SEQ ID NO: 15); reverse: 5′-CGC TCC ACC TTT CCT TAA A-3′ (SEQ ID NO: 16); or mouse miR-22: Forward: 5′-TGA ATG GGC GGG AGT AA-3′ (SEQ ID NO: 17); reverse: 5′-CCAC GAG CTG CGA ATG AA-3′ (SEQ ID NO: 18).

[4] = system: U937 cells; assay: Cellular uptake of dendrimers in U937 cells; assay type: cell-based; details: U937 cells (very low levels of FLT)
Description: (§2) In order to selectively deliver miR-22 oligos to FLT3-expressing AML cells, Poly(amidoamine) (PAMAM) dendrimers (Hong S, et al. Bioconjugate Chemistry. 2006; 17:728-34, Hong S, et al. Bioconjugate Chemistry. 2009; 20:1503-13, and Sunoqrot S, et al. J Control Release. 2014; 191:115-22, incorporated herein by reference) are selected as the basis of the nanoparticle carriers, and conjugated with the near-infrared dye Cyanine 5.5 (Cy5.5) for monitoring the dynamic distributions of the nanoparticles, and FLT3 ligand (FLT3L) proteins for specific targeting FLT3 on the cell surface. H2B, a nuclear histone protein with similar molecular weight as FLT3L, was conjugated as a negative control. G7-FLT3L dendrimers will efficiently and selectively target AML cells with FLT3 overexpression.

[5] = system: MONOMAC-6 cells; assay: Viability and apoptosis of MONOMAC-6 cells treated with dendrimers; assay type: cell-based, human; details: compared with PBS
[6] = system: MONOMAC-6 cells; assay: Cellular uptake of dendrimers in MONOMAC-6 cells; assay type: cell-based, human
Description: as §2

| Molecule | methylation status of the miR-22 promoter [1] | WDR81 level [2] | expression of TET1, EZH2 and SIN3A [2] | expression of TET2 or TET3 (down-regulation) [2] | increase in miR-22 expression level [2] | transcription level of GFI1 [2] | H3K4Me3 modifications at miR-22 promoter region [3] | H3K27me3 modifications at miR-22 promoter region [3] | RNA polymerase II occupancy at miR-22 promoter region [3] | binding of GFI1, TET1, EZH2 and SIN3A to the miR-22 promoter region [3] | binding of MLL protein to the miR-22 promoter region (reduction) [3] | uptake ratios, G7-FLT3L vs G7-H2B [4] | viability and apoptosis (cytotoxicity) [5] | one-hour uptake ratio ([6]; FLT3-overexpressing AML cells, one hour) [%] | uptake ratio after suppression of endogenous FLT3 expression ([6]; MONOMAC-6 cells overexpressing miR-22) | uptake ratio after 24 hours' treatment ([6]; MONOMAC-6 cells, 24 hours, G7-FLT3L vs G7-H2B control) |
| --- | --- | --- | --- | --- | --- | --- | --- | --- | --- | --- | --- | --- | --- | --- | --- | --- |
| CC1=C(/C=C/C(C)=C/C=C/C(C)=C/C(=O)O)C(C)(C)CCC1 [ATRA, all-trans-retinoic acid] | hypomethylated | no significant effects | significantly down-regulated | not | more than 5 fold | substantially reduced | no significant change | significantly decreased | increased | remarkably reduced | not |  |  |  |  |  |
| B1 |  |  |  |  |  |  |  |  |  |  |  | no significant difference | low, if any, cytotoxicity | 23.6 | significant decrease | significantly higher |
